Molecules are shown by their SMILES. Values after ≈ are worked out from the molar mass of the structure shown. Values joined by “and” are separate entries in the source; they are usually repeats but may differ in a detail not shown here. Equal entries are not always repeated. Active and inactive are the calls of the source. The rule behind the calls is not given here.

The nature of experiment [1]: In vitro inhibitory activity against growth of KB cells. As to conditions: for IC50: Homo sapiens, KB, read-out: ID50 (the source's name). It is filed as functional, Homo sapiens.
The subject of experiment [2] is Mus musculus. Nature of the experiment: Compound was tested for inhibitory activity against P388 leukemia in mice at 400 mg/kg. It is filed as functional, organism-based. Also on record: dose 400 mg/kg.
For experiment [3], the system named is Mus musculus. The experiment in a line: In vivo antitumor activity against leukemia P388 in mice after intraperitoneal administration at a dose of 25 mg/kg once a day for 1 and 5 days. It is filed as functional.
Experiment [4] has as its system Mus musculus. The experiment in a line: In vivo antitumor activity against leukemia P388 in mice after intraperitoneal administration once a day for 1 and 5 days. It is filed as functional.
The subject of experiment [5] is Mus musculus. Nature of the experiment: In vivo antitumor activity against leukemia P388 in mice after intraperitoneal administration at a dose of 100 mg/kg once a day for 1 and 5 days. Type of experiment: functional.
The test system of experiment [6] is Mus musculus. The experiment in a line: In vivo antitumor activity against leukemia P388 in mice after intraperitoneal administration at a dose of 200 mg/kg once a day for 1 and 5 days. Type of experiment: functional.
The subject of experiment [7] is Mus musculus. Nature of the experiment: In vivo antitumor activity against leukemia P388 in mice after intraperitoneal administration at a dose of 50 mg/kg once a day for 1 and 5 days. Type of experiment: functional.
In experiment [8] the test system is Mus musculus. The experiment in a line: In vivo antitumor activity against leukemia P388 in mice after intraperitoneal administration at a dose of 400 mg/kg once a day for 1 and 5 days. It is filed as functional.
The subject of experiment [9] is Mus musculus. Nature of the experiment: In vivo antitumor activity against leukemia P388 in mice after intraperitoneal administration of the compound at a dose of 200 mg/kg once a day for 1 and 5 days. Type of experiment: functional.
Experiment [10] has as its system Mus musculus. Nature of the experiment: In vivo antitumor activity against leukemia P388 in mice after intraperitoneal administration at a dose of 12.5 mg/kg once a day for 1 and 5 days. Type of experiment: functional.

Consider `COC(=O)c1ccc(O)c(C2OCCc3ccccc32)c1` (stereo unspecified), for which, in experiment [1], the ID50 was 352 µM and the IC50 is over 100 µg/mL. Moreover, in [2], the outcome was inactive.

With `Oc1ncc(C2OCCc3ccccc32)c(O)n1` (stereo unspecified), in experiment [1], the ID50 was 410 µM and the IC50 was over 100 µg/mL. Also, the outcome in [2] was inactive.

Take `O=C1c2ccccc2CCC1C1OCCc2ccccc21` (stereo unspecified): in experiment [1], the ID50 was 151 µM and the IC50 came out at 42 µg/mL (≈ 151 µM). Further, the outcome in experiment [2] was inactive.

One may read the T/C as the result in the treated group divided by that in the control group, in per cent. In the case of `CCOC(c1ccccc1)c1ccc(C(C)C)cc(=O)c1O` (stereo unspecified), the T/C in [3] worked out at 97%; in [4] it was 96%.

Regarding `COc1ccc(C(c2oc(CO)cc(=O)c2O)c2oc(CO)cc(=O)c2O)cc1`, in experiment [1], the ID50 was 249 µM. The IC50 in [1] worked out at 100 µg/mL (≈ 249 µM). In addition, the figures for the T/C in experiment [5], in experiment [6] and in experiment [7] were 98%, 102% and 102%, respectively.

With `Oc1ccccc1C1OCCc2ccccc21` (stereo unspecified), in [1], the ID50 is 90 µM and the IC50 was found to be 20.5 µg/mL (≈ 90.6 µM). Moreover, in experiment [2], the result was inactive.

`Clc1ccc2oc(SCC3OCCc4ccccc43)nc2c1` (stereo unspecified): in [1], the ID50 stood at 18 µM and the IC50 was found to be 6.1 µg/mL (≈ 18.4 µM). In [2], the result was inactive.

As for `COc1ccc(C(NC(=O)c2ccccc2)c2ccc(C(C)C)cc(=O)c2O)cc1` (stereo unspecified), the ID50 in [1] is 4.2 µM. In experiment [1], the IC50 worked out at 1.7 µg/mL (≈ 4.21 µM). Further, the T/C in experiment [8] is listed as 131%; in experiment [5] it was 104%; in experiment [6], 110%.

`CC1(C)CC(=O)C(C2OCCc3ccccc32)=C(O)C1` (stereo unspecified): in [1], the ID50 was 368 µM and the IC50 was over 100 µg/mL. The result in experiment [2] was inactive.

With `COc1ccc(C(NC(C)=O)c2ccc(C(C)C)cc(=O)c2O)cc1` (stereo unspecified), the ID50 in [1] was determined as 18 µM. In experiment [1], the IC50 is 6 µg/mL (≈ 17.6 µM). In addition, the T/C amounted to 108% in experiment [8], 92% in experiment [5] and 92% in experiment [6].

In the case of `O=c1oc2ccccc2c(O)c1C1OCCc2ccccc21` (stereo unspecified), in experiment [1], the ID50 turned out to be 340 µM and the IC50 was 100 µg/mL (≈ 340 µM). The result in experiment [2] was inactive.

As for `S=c1oc2ccc(Cl)cc2n1C1OCCc2ccccc21` (stereo unspecified), in experiment [1], the ID50 is 268 µM and the IC50 came to 85 µg/mL (≈ 267 µM). Moreover, in experiment [2], the outcome was inactive.

`O=C1c2ccccc2CC1C1OCCc2ccccc21` (stereo unspecified): in [1], the ID50 stood at 144 µM and the IC50 was 38 µg/mL (≈ 144 µM). Further, the outcome in experiment [2] was inactive.

Turning to `CC(=O)C1=C(O)CN(C2OCCc3ccccc32)C1=O` (stereo unspecified), in [1], the ID50 is 366 µM and the IC50 was over 100 µg/mL. The outcome in [2] was inactive.

As to `O=C(c1ccccc1)C(c1ccccc1)C1OCCc2ccccc21` (stereo unspecified), in experiment [1], the ID50 worked out at 305 µM and the IC50 is over 100 µg/mL. Also, the outcome in [2] was inactive.

For `Cc1cc(O)c(C(C)C)cc1C1OCCc2ccccc21` (stereo unspecified), in experiment [1], the ID50 was found to be 57 µM and the IC50 stood at 16 µg/mL (≈ 56.7 µM). The outcome in experiment [2] was inactive.

`COc1ccc(C(c2ccc(C(C)C)cc(=O)c2O)n2c(=S)oc3ccccc32)cc1` (stereo unspecified) yielded an ID50 in experiment [1] of 8.5 µM. In experiment [1], the IC50 was found to be 3.7 µg/mL (≈ 8.53 µM). Further, the T/C in [9] worked out at 105%; in experiment [8], 133%; in experiment [5], 113%.

For `S=c1oc2ccc(Cl)cc2n1CC1OCCc2ccccc21` (stereo unspecified), in [1], the ID50 amounted to 28 µM and the IC50 is 8.9 µg/mL (≈ 26.8 µM). The result in experiment [2] was inactive.

For `CC(C)c1ccc(C(Sc2ccccc2)c2ccccc2)c(O)c(=O)c1` (stereo unspecified), the ID50 in [1] turned out to be 1.4 µM. In addition, in experiment [1], the IC50 came to 0.5 µg/mL (≈ 1.38 µM). The T/C is 113% in experiment [8], 108% in [5] and 135% in experiment [6].

For the molecule `Oc1ccc(C2OCCc3ccccc32)cc1` (stereo unspecified), in [1], the ID50 is 119 µM and the IC50 came to 27 µg/mL (≈ 119 µM). For the same molecule, the outcome in experiment [2] was inactive.

As for `Cc1cc(O)c(C(C)C)cc1C(c1ccccc1)c1cc(C(C)C)c(O)cc1C`, in experiment [1], the ID50 is 34 µM and the IC50 stood at 13 µg/mL (≈ 33.5 µM). Besides, in [4], the T/C was 102% and 100% and 87%.

With `CCOC(c1ccc(OC)cc1)c1ccc(C(C)C)cc(=O)c1O` (stereo unspecified), the IC50 in [1] came out at 0.5 µg/mL (≈ 1.52 µM). Further, the T/C in experiment [10] stood at 96%; in experiment [3] it was 109%; in experiment [7], 119%.
